Measurements from US5773236A, “Assay for glutathiane transferase using polyhaloaryl-substituted reporter molecules” (Molecule Probes, Inc., priority 1997, dated 1998).

Columns and labels:
[1] = system: β-galactosidase; assay: Reactivity with thiol groups of proteins (Example 51); format: biochemical
Method: To test the specificity of the Compound 1 reaction with GSH versus thiol-containing proteins, β-galactosidase (a protein that has several free thiols) is dissolved at 5 mg/mL in deoxygenated 0.1M phosphate, 0.1M NaCl, pH 7.5, and reacted under anaerobic conditions with 5-(pentafluorobenzoylamino)fluorescein diacetate (Compound 4, Example 3) or Compound 1 dissolved at 10 mg/mL in DMSO at a molar ratio of the reagent to protein of 15. This assay is performed both in the presence and absence of 30 mM N-ethyl maleimide (NEM) as an effective thiol-blocking reagent. The reactions are incubated at room temperature for 1 hour, stopped by the addition of hydroxylamine, pH 9 to a final concentration of 0.15M, and incubated for 2 more hours to hydrolyze the acetate groups. […] Consequently, no reaction of either Compound 4 or Compound 1 with β-galactosidase is detected under the described conditions.

[2] = system: GST; assay: Quantitation of GST in enzymatic reactions, TLC (Example 55); format: biochemical; details: excess GSH, 2 μL spotted on TLC
Method: (§1) A set of reactions as described in Example 48 are performed using limiting concentrations of GSH (0.1 μM-1 mM), to measure the range of sensitivity of the assay for quantitating GSH. Alternatively, the reaction is performed using excess GSH and limiting GST (0.1 μg/mL-20 μg/mL) to determine the suitability of the method to detect and quantitate glutathione transferase activity of isolated enzymes or of GST-fusion proteins.
(§2) In one hour reactions at 37° C., using 0.5 mM Compound 1 (Example 1) as the substrate, 10 μg/mL GST and limiting GSH, the minimum amount of fluorescent Compound 1-GSH adduct (Compound 45) detectable by simple illumination with a long wavelength UV hand lamp corresponds to ~2-4 picomoles of GSH. When using excess GSH and variable amounts of GST, it is possible to detect by visible inspection the reaction product in solutions containing 5 μg/mL of enzyme spotted on TLC in 2 μL amounts: this spot corresponds to ~10 ng of GST. […] Quantitative measurement of the amount of product formed can be performed by either HPLC (Example 52), using a plate scanner (Example 53) or by extraction of the scraped silica gel spots into methanol or pH 8.0 buffer and measurement of the fluorescence against that of a series of dilutions of the authentic adduct (Example 45) in the same buffer using a fluorometer or microplate reader.

[3] = system: GST; assay: HPLC analysis of the in vitro reaction mixture (Example 52); format: biochemical; details: with GST, absorbance at 500 nm
Method: To determine whether a compound is a selective substrate for glutathione transferase, a 2 mM ethanol stock solution of a polyhalogenated derivative (for example the series of butylbenzamides described in Example 49), reduced glutathione (phosphate buffer stock solution, 5 mM) and glutathione S-transferase (phosphate buffer stock solution, 1 unit/mL) are incubated at 25° C. in the mixture of 98% 0.1M K2 HPO4 -KH2 PO4 buffer (pH7.5) that contains 1 mM EDTA and 2% ethanol for 2 h. The reaction is then stopped by adding 10% H2 O2.
Reaction mixtures with and without GST using Compound 1 as the substrate, are prepared as described in Example 48. The solutions are mixed overnight with three volumes of ethyl acetate followed by centrifugation at 15,000×g for 30 min to separate the organic and aqueous layers. HPLC analysis using a Rainin HPLC equipped with a C18, 5 μm, 100 Å, 4.6×250 mm MICROSORB-MV reverse phase column. Products are separated in 30 min with a gradient of 5% to 95% solvent B in Solvent A at a flow rate of 1 mL/min, where solvent A is 0.1M triethylammonium acetate, pH 7.0, and solvent B is acetonitrile (see FIG. 1). Products are detected by reading the absorbance at 500 nm. Peaks are identified and, if desired, quantitated by comparing retention times with authentic samples of the glutathione adduct of Compound 45 (Example 45).

[4] = Quantitation of GSH in enzymatic reactions, TLC (Example 55); format: biochemical; details: 0.5 mM Compound 1, 10 μg/mL GST, limiting GSH, 1 hour, 37° C., UV hand lamp
Method: as §1, §2

[5] = system: glutathione transferase (endogenous GST in BPAE cell lysates); assay: Determination of GST activity in cell extracts (Example 56); format: biochemical, Bovine
Method: (§3) Cultures of BPAE cells are trypsinized, pelleted, washed once in PBS and resuspended in 200 μL of distilled water in numbers from 200 to 1,000,000. The cells are lysed by repeated freezing and thawing and spun for 10 min. in a microfuge to eliminate the insoluble particles from the lysate, which contains both GSH and GST.
The assay for the amount of GST activity present in cell lysates (endogenous GST) is performed using the same system as above with the exception that 5 mM GSH is added to the reaction mixture to ensure that there is a sufficient excess of GSH to saturate the enzyme. The reaction is incubated for one hour at 37° C. and 2 μL of each sample are spotted on TLC plates and developed as described in Example 48. Product formation is quantitated using a plate scanner as for GSH determination (as in Example 53). […] Similarly, this assay system can be used to quantitate GST-fusion proteins.

[6] = system: GSH in BPAE cell lysate; assay: Determination of GSH in cell extracts (Example 56); format: biochemical, Bovine; details: 0.2 mM Compound 1, 5 μg GST, 2 hours, 37° C.; FIG. 3
Method: as §3
To 150 μL of the lysate are added 5.5 μL of 1.8M MOPS pH 7.5, Compound 1 at the final concentration of 0.2 mM, 5 μg GST and distilled water to obtain the final volume of 200 μL. The reaction mixtures are incubated for 2 hours at 37° C. and analyzed by TLC by spotting 2 μL of each sample and developing as described in Example 48. The spots corresponding to the product formed by the different amounts of cells, because of their endogenous GSH is quantitated on a plate scanner as described in Example 53. […] Quantitation of GSH can also be performed by separating the product from the reaction mixture by HPLC as in Example 52.

[7] = system: glutathione transferase (GST); assay: Reactivity with glutathione catalyzed by glutathione transferase, TLC (Example 50); format: biochemical
Method: The suitability of Compound 1 (Example 1) and 5-(pentachlorobenzoylamino)fluorescein (Compound 48) as substrates for glutathione transferase (GST) in the presence of excess glutathione (GSH) is tested in vitro as follows: 5 mM GSH, 0.5 mM substrate (Compound 1 or Compound 48) and 20 micrograms GST (Sigma #G-6511, 70 units/mg) are combined in 0.1M phosphate buffer, pH 8.0, for 1 hour at 37° C. The reaction is terminated by spotting approximately 3 μL on silica gel TLC plates. The plate is developed using 1-butanol: methanol: water (3:1:1). […] Analysis of the reaction mixture by HPLC as in Example 52 confirms that the reaction product of Compound 1 with GSH is identical to the authentic Compound 1-GSH adduct as prepared in Example 45 (Compound 45).

[8] = system: P3×63AG8 cells; assay: Peptidase substrate in live cells, flow cytometry (Example 58); format: cell-based; details: 1 μM, 37° C., 30 minutes
Method: P3×63AG8 cells obtained from American Type Culture Collection Co., Rockville, Md. are used. They are grown in a humidified atmosphere of 5% CO2 in Dulbecco's modified Eagle's medium (D-MEM) supplemented with 10% calf serum, 50 μg/mL gentamycin, 300 μg/mL L-glutamine and 10 mM HEPES, pH 7.4. Compound 13-Arg (Prepared as in Examples 12 and 13) is dissolved at 1 mM in DMSO. The P3×63AG8 cells are trypsinized, washed with phosphate-buffered saline (PBS), pH 7.2 and resuspended in 1 mL of the same buffer. 1 μL of the stock reagent is added to 1 mL of the cell suspension to obtain a final concentration of 1 μM. Incubation is carried out at 37° C. for 30 minutes. Cells are centrifuged to form a pellet, the supernatant is discarded, the cells are washed twice with PBS, pH 7.2 and resuspended in 300 μL of the same buffer. Cells are analyzed by flow cytometry using the Becton-Dickinson FACS Vantage flow cytometer.

[9] = system: CRE BAG 2 cells; assay: Peptidase substrates in live cells, fluorescence microscopy (Example 59); format: cell-based; details: 1 μM, 0.5 μM or 0.1 μM, 37° C., 30 minutes
Method: CRE BAG 2 cells obtained from American Type Culture Collection Co., Rockville, Md. are used. They are grown in a humidified atmosphere of 5% CO2 in D-MEM supplemented with 10% calf serum, 50 μg/mL gentamycin, 300 μg/mL L-glutamine and 10 mM HEPES, pH 7.4. 1 mM stock solutions of Compound 13-Leu (Example 13) and Compound 13-Arg substrate are prepared in DMSO. CRE BAG 2 cells are trypsinized, washed with phosphate-buffered saline, pH 7.2 and resuspended in 1 mL of the same buffer. 1 μL, 0.5 μL or 0.1 μL of the stock reagents is added to 1 mL of the cell suspension to obtain a final concentration of 1 μM, 0.5 μM or 0.1 μM. Incubation is carried out at 37° C. for 30 minutes. Cells are centrifuged to form a pellet, the supernatant is discarded and the cells are washed with PBS, pH 7.2 and suspended in the same buffer. Cells are mounted on slides and observed by fluorescence microscopy using filters optimized for fluorescein.

[10] = system: CRE BAG 2 cells; assay: Marker gene expression by flow cytometry, CRE BAG 2 (Example 62); format: cell-based; details: 0.2 mM dye, 37° C., 30 minutes
Method: (§4) NIH-3T3 and CRE BAG2 cells are maintained as in Example 61. A 10 mM stock solution of (((3 -(2-pentafluorobenzoyl)amino)ethyl)amino)carbonyl)-umbelliferyl β-D-galactopyranoside (Compound 37; Example 37) is prepared in DMF. A 10 mM stock solution of 4-chloromethylcoumarin β-D-galactopyranoside (CMCG; Molecular Probes #D-2921) is prepared in a 1:1 mixture of DMSO and water. NIH-3T3 and CRE BAG2 cells are trypsinized, washed with phosphate buffered saline (PBS), pH 7.2 and resuspended in D-MEM with 10% BCS. To separate 1 mL cell suspensions are added the dye stock solutions to obtain final concentrations of 0.2 mM dye. Incubation is carried out at 37° C. for 30 minutes. Cells are centrifuged to form a pellet, the supernatant is discarded and the cells are washed twice with PBS, pH 7.2 and suspended in the same buffer. Cells are analyzed by flow cytometry using a Becton-Dickinson FACS Vantage flow cytometer. […] However, CRE BAG 2 cells stained with the Compound 37 show fluorescence that is greater than 25-fold that shown by autofluorescent control cells. For the CRE BAG 2 cells stained with CMCG, the fluorescence intensity is only 8-fold greater than that of the autofluorescent control cells.

[11] = system: NIH-3T3 cells; assay: Marker gene expression by flow cytometry, NIH-3T3 (Example 62); format: cell-based; details: 0.2 mM dye, 37° C., 30 minutes
Method: as §4

## O=C1OC2(c3ccc(O)cc3Oc3cc(O)ccc32)c2ccc(NC(=O)c3c(F)c(F)c(F)c(F)c3F)cc21 [Compound 1, 5-(pentafluorobenzoylamino)fluorescein]
[1]; molar ratio of reagent to protein 15
  fluorescent proteins formed, gel electrophoresis: no fluorescent proteins are formed
[1]; molar ratio of reagent to protein 15, pH 7.5, 1 hour, with and without 30 mM NEM
  reaction with β-galactosidase, TLC: no reaction
[2]
  amount of GST corresponding to detectable spot: ~ 10 ng
[2]; variable GST, 1 hour, 37° C.
  enzyme (GST) concentration detectable by visible inspection: 5 µg/mL
[3]
  products in aqueous layer by HPLC: two major peaks with elution times corresponding to the Compound 45 and to the unreacted Compound 1
[4]
  minimum amount of adduct detectable, corresponding to GSH: 2-4 picomoles
[5]; 5 mM GSH, one hour, 37° C., FIG. 4
  usefulness for determination of GST activity in cell lysates: useful for the determination of the activity of GST activity in cells lysates
[5]; high concentration of both substrate and GSH
  adduct formation in absence of enzyme: a trace amount of adduct forms
[6]
  plot of fluorescence intensity of Compound 1-GSH adduct versus number of cells (GSH): good linearity
[7]; 5 mM GSH, 0.5 mM substrate, 20 micrograms GST, pH 8.0, 1 hour, 37° C.
  adduct formation with glutathione in presence of GST: forms a fluorescent adduct with glutathione
[7]; GST omitted
  reaction in control without GST: very low or no reaction

## N=C(N)NCCC[C@H](N)C(=O)Nc1ccc2c(c1)Oc1cc(NC(=O)c3c(F)c(F)c(F)c(F)c3F)ccc1C21OC(=O)c2ccccc21 (stereo partly drawn) [Compound 13-Arg]
[8]
  cell fluorescence (FL 1 channel): fluorescence levels greater than the cell's autofluorescence
[9]
  staining of cells, fluorescence microscopy: punctate green fluorescence associated with organelles

## O=C(NCCNC(=O)c1cc2ccc(O[C@@H]3O[C@H](CO)[C@H](O)[C@H](O)[C@H]3O)cc2oc1=O)c1c(F)c(F)c(F)c(F)c1F [Compound 37, ((((3-(2-pentafluorobenzoyl)amino)ethyl)amino)carbonyl)umbelliferyl β-D-galactopyranoside]
[10]
  fluorescence relative to autofluorescent control cells: greater than 25 fold
[11]
  fluorescence versus autofluorescent cells: do not show fluorescence greater than that observed for autofluorescent cells
